Series [1] deals with Puccinia recondita f. Sp. Tritici. Nature of the series: Fungicidal activity against Puccinia recondita f. sp. tritici / wheat / leaf disc preventative (brown rust). It is filed as in vivo. The note with it: foliar, 200 ppm in the applied formulation, wheat leaf segments cv. Kanzler, inoculated 1 day after application, assessed 7 to 9 days after application, read-out: disease control compared to untreated control leaf disks. As to the method: Leaf disks or leaf segments of various plant species are cut from plants grown in a greenhouse. The cut leaf disks or segments are placed in multiwell plates (24-well format) onto water agar. The leaf disks are sprayed with a test solution before (preventative) or after (curative) inoculation. Compounds to be tested are prepared as DMSO solutions (max. 10 mg/ml) which are diluted to the appropriate concentration with 0.025% Tween20 just before spraying. The inoculated leaf disks or segments are incubated under defined conditions (temperature, relative humidity, light, etc.) according to the respective test system. A single evaluation of disease level is carried out 3 to 14 days after inoculation, depending on the pathosystem. Percent disease control relative to the untreated check leaf disks or segments is then calculated. Wheat leaf segments cv. Kanzler were placed on agar in multiwell plates (24-well format) and sprayed with the formulated test compound diluted in water. The leaf disks were inoculated with a spore suspension of the fungus 1 day after application. The inoculated leaf segments were incubated at 19° C. and 75% relative humidity (rh) under a light regime of 12 hours light/12 hours darkness in a climate cabinet and the activity of a compound was assessed as percent disease control compared to untreated when an appropriate level of disease damage appears in untreated check leaf segments (7 to 9 days after application). The following compounds at 200 ppm in the applied formulation give at least 80% disease control in this test when compared to untreated control leaf disks under the same conditions, which show extensive disease development.

The test system of series [2] is Puccinia recondite f. Sp. Tritici. Nature of the series: Fungicidal activity against Puccinia recondite f. sp. tritici / wheat / leaf disc curative (brown rust). The class given is in vivo. The note with it: foliar, 200 ppm in the applied formulation, wheat leaf segments cv. Kanzler, applied 1 day after inoculation, assessed 6 to 8 days after application, read-out: disease control compared to untreated control leaf disks. As to the method:
Leaf disks or leaf segments of various plant species are cut from plants grown in a greenhouse. The cut leaf disks or segments are placed in multiwell plates (24-well format) onto water agar. The leaf disks are sprayed with a test solution before (preventative) or after (curative) inoculation. Compounds to be tested are prepared as DMSO solutions (max. 10 mg/ml) which are diluted to the appropriate concentration with 0.025% Tween20 just before spraying. The inoculated leaf disks or segments are incubated under defined conditions (temperature, relative humidity, light, etc.) according to the respective test system. A single evaluation of disease level is carried out 3 to 14 days after inoculation, depending on the pathosystem. Percent disease control relative to the untreated check leaf disks or segments is then calculated.
Wheat leaf segments cv. Kanzler are placed on agar in multiwell plates (24-well format). The leaf segments are then inoculated with a spore suspension of the fungus. Plates were stored in darkness at 19° C. and 75% relative humidity. The formulated test compound diluted in water was applied 1 day after inoculation. The leaf segments were incubated at 19° C. and 75% relative humidity under a light regime of 12 hours light/12 hours darkness in a climate cabinet and the activity of a compound was assessed as percent disease control compared to untreated when an appropriate level of disease damage appears in untreated check leaf segments (6 to 8 days after application).
The following compounds at 200 ppm in the applied formulation give at least 80% disease control in this test when compared to untreated control leaf disks under the same conditions, which show extensive disease development.

In series [3] the test system is Glomerella lagenarium (Colletotrichum lagenarium). In words: Fungicidal activity against Glomerella lagenarium (Colletotrichum lagenarium) liquid culture / cucumber / preventative (anthracnose). The note with it: Colletotrichum orbiculare; 20 ppm in the applied formulation; liquid culture in PDB, 24° C.; 3 to 4 days after application; read-out: disease control compared to untreated control (inhibition of growth measured photometrically). The class given is cell-based. As to the method: Mycelia fragments or conidia suspensions of a fungus prepared either freshly from liquid cultures of the fungus or from cryogenic storage, are directly mixed into nutrient broth. DMSO solutions of the test compound (max. 10 mg/ml) are diluted with 0.025% Tween20 by a factor of 50 and 10 μl of this solution is pipetted into a microtiter plate (96-well format). The nutrient broth containing the fungal spores/mycelia fragments is then added to give an end concentration of the tested compound. The test plates are incubated in the dark at 24° C. and 96% relative humidity. The inhibition of fungal growth is determined photometrically after 2 to 7 days, depending on the pathosystem, and percent antifungal activity relative to the untreated check is calculated.
Conidia of the fungus from cryogenic storage are directly mixed into nutrient broth (PDB—potato dextrose broth). After placing a (DMSO) solution of test compound into a microtiter plate (96-well format), the nutrient broth containing the fungal spores is added. The test plates are incubated at 24° C. and the inhibition of growth is measured photometrically 3 to 4 days after application.
The following compounds at 20 ppm in the applied formulation give at least 80% disease control in this test when compared to untreated control under the same conditions, which show extensive disease development.

By inhibition is commonly meant the share of the control response that was lost under treatment. By melting point is commonly meant the temperature, or range, at which the solid turns liquid. In turn, `O=C(NCCO)C(=O)c1ccc(-c2noc(C(F)(F)F)n2)cc1` [Compound 1.1, N-(2-hydroxy-ethyl)-2-oxo-2-[4-[5-(trifluoromethyl)-1,2,4-oxadiazol-3-yl]phenyl]acetamide] returned a melting point of 147 to 148 °C. In addition, the pest or weed control at 200 ppm in series [1] is no less than 80%. Further, in series [2], the pest or weed control at 200 ppm was no less than 80%. Also, the inhibition at 20 ppm in series [3] was no less than 80%.

Turning to `CN(C)CCNC(=O)C(=O)c1ccc(-c2noc(C(F)(F)F)n2)cc1` [Compound 1.2, N-[2-(dimethyl-amino)ethyl]-2-oxo-2-[4-[5-(trifluoromethyl)-1,2,4-oxadiazol-3-yl]phenyl]acetamide], in series [3], the inhibition at 20 ppm was no less than 80%.

As for `CON1CCN(C(=O)C(=O)c2ccc(-c3noc(C(F)(F)F)n3)cc2)CC1` [Compound 1.3, 1-(4-methoxypiperazin-1-yl)-2-[4-[5-(trifluoromethyl)-1,2,4-oxadiazol-3-yl]phenyl]ethane-1,2-dione], the pest or weed control at 200 ppm in series [1] was no less than 80%. Moreover, in series [3], the inhibition at 20 ppm is no less than 80%.

Take `O=C(NOCC(F)F)C(=O)c1ccc(-c2noc(C(F)(F)F)n2)cc1` [Compound 1.4, N-(2,2-difluoroethoxy)-2-oxo-2-[4-[5-(trifluoromethyl)-1,2,4-oxadiazol-3-yl]phenyl]acetamide]: the pest or weed control at 200 ppm in series [1] is no less than 80%. Also, in series [3], the inhibition at 20 ppm was no less than 80%.

Consider `CN(C)C(=O)C(=O)c1ccc(-c2noc(C(F)(F)F)n2)cc1` [Compound 1.5, N,N-dimethyl-2-oxo-2-[4-[5-(trifluoromethyl)-1,2,4-oxadiazol-3-yl]phenyl]acetamide], for which the pest or weed control at 200 ppm in series [1] and in series [2] was no less than 80% throughout. Besides, the inhibition at 20 ppm in series [3] is no less than 80%.

In the case of `C=CCONC(=O)C(=O)c1ccc(-c2noc(C(F)(F)F)n2)cc1` [Compound 1.6, N-allyloxy-2-oxo-2-[4-[5-(trifluoromethyl)-1,2,4-oxadiazol-3-yl]phenyl]acetamide], the pest or weed control at 200 ppm in series [1] is no less than 80%.

The molecule `CNC(=O)CNC(=O)C(=O)c1ccc(-c2noc(C(F)(F)F)n2)cc1` [Compound 1.7, N-[2-(methyl-amino)-2-oxo-ethyl]-2-oxo-2-[4-[5-(trifluoromethyl)-1,2,4-oxadiazol-3-yl]phenyl]acetamide] returned a melting point of 167 to 168 °C. For the same molecule, the pest or weed control at 200 ppm in series [1] is no less than 80%. Also, the pest or weed control at 200 ppm in series [2] was no less than 80%. Also, the inhibition at 20 ppm in series [3] is no less than 80%.

For `O=C(NCCNC(=O)C1CC1)C(=O)c1ccc(-c2noc(C(F)(F)F)n2)cc1` [Compound 1.8, N-[2-[[2-oxo-2-[4-[5-(trifluoromethyl)-1,2,4-oxadiazol-3-yl]phenyl]acet-yl]amino]eth-yl]cyclopropane-carboxamide], the melting point was in the range of 209 to 210 °C. In addition, in series [1], the pest or weed control at 200 ppm was no less than 80%. Further, the inhibition at 20 ppm in series [3] was no less than 80%.

For the molecule `O=C(NCC(F)F)C(=O)c1ccc(-c2noc(C(F)(F)F)n2)cc1` [Compound 1.10, N-(2,2-difluoroethyl)-2-oxo-2-[4-[5-(trifluoromethyl)-1,2,4-oxadiazol-3-yl]phenyl]acetamide], the pest or weed control at 200 ppm in series [1] and in series [2] was no less than 80% each time. The inhibition at 20 ppm in series [3] was no less than 80%.

On to `CC(=O)NCCNC(=O)C(=O)c1ccc(-c2noc(C(F)(F)F)n2)cc1` [Compound 1.11, N-(2-acetamidoethyl)-2-oxo-2-[4-[5-(trifluoromethyl)-1,2,4-oxadiazol-3-yl]phenyl]acetamide], for which the pest or weed control at 200 ppm in series [1] and in series [2] was no less than 80% in each case. The inhibition at 20 ppm in series [3] is no less than 80%.

On to `CCCN(C)C(=O)C(=O)c1ccc(-c2noc(C(F)(F)F)n2)cc1` [Compound 1.22, N-methyl-2-oxo-N-propyl-2-[4-[5-(trifluoromethyl)-1,2,4-oxadiazol-3-yl]phenyl]acetamide], for which the pest or weed control at 200 ppm in series [1] and in series [2] was no less than 80% each time. For the same molecule, the inhibition at 20 ppm in series [3] was no less than 80%.

On to `CSCCNC(=O)C(=O)c1ccc(-c2noc(C(F)(F)F)n2)cc1` [Compound 1.23, N-(2-methyl-sulfanylethyl)-2-oxo-2-[4-[5-(trifluoromethyl)-1,2,4-oxadiazol-3-yl]phenyl]acetamide], for which the pest or weed control at 200 ppm in series [1] and in series [2] was no less than 80% throughout. Further, the inhibition at 20 ppm in series [3] is no less than 80%.

As for `O=C(NCC1COCCO1)C(=O)c1ccc(-c2noc(C(F)(F)F)n2)cc1` (stereo not drawn) [Compound 1.28, N-(1,4-dioxan-2-ylmethyl)-2-oxo-2-[4-[5-(trifluoromethyl)-1,2,4-oxadiazol-3-yl]phenyl]acetamide], the pest or weed control at 200 ppm in series [1] and in series [2] was no less than 80% in each case. Moreover, the inhibition at 20 ppm in series [3] was no less than 80%.

As for `Cc1ccsc1CN(C)C(=O)C(=O)c1ccc(-c2noc(C(F)(F)F)n2)cc1` [Compound 1.29, N-methyl-N-[(3-methyl-2-thienyl)methyl]-2-oxo-2-[4-[5-(trifluoromethyl)-1,2,4-oxadiazol-3-yl]phenyl]acetamide], the inhibition at 20 ppm in series [3] is no less than 80%.

Consider `COCCN(CCOC)C(=O)C(=O)c1ccc(-c2noc(C(F)(F)F)n2)cc1` [Compound 1.30, N,N-bis(2-methoxyethyl)-2-oxo-2-[4-[5-(trifluoromethyl)-1,2,4-oxadiazol-3-yl]phenyl]acetamide], for which the pest or weed control at 200 ppm in series [2] is no less than 80%. Moreover, in series [3], the inhibition at 20 ppm was no less than 80%.

With `CCON(C)C(=O)C(=O)c1ccc(-c2noc(C(F)(F)F)n2)cc1` [Compound 1.32, N-ethoxy-N-methyl-2-oxo-2-[4-[5-(trifluoromethyl)-1,2,4-oxadiazol-3-yl]phenyl]acetamide], the pest or weed control at 200 ppm in series [1] and in series [2] was no less than 80% in each case. The inhibition at 20 ppm in series [3] is no less than 80%.

With `CN(C(=O)C(=O)c1ccc(-c2noc(C(F)(F)F)n2)cc1)c1ccccc1` [Compound 1.33, N-methyl-2-oxo-N-phenyl-2-[4-[5-(trifluoromethyl)-1,2,4-oxadiazol-3-yl]phenyl]acetamide], the inhibition at 20 ppm in series [3] was no less than 80%.

With `COC(=O)CNC(=O)C(=O)c1ccc(-c2noc(C(F)(F)F)n2)cc1` [Compound 1.36, methyl 2-[[2-oxo-2-[4-[5-(trifluoromethyl)-1,2,4-oxadiazol-3-yl]phenyl]acet-yl]amino]acetate], the melting point lay within 89 to 90 °C. Moreover, in series [2], the pest or weed control at 200 ppm is no less than 80%. The inhibition at 20 ppm in series [3] was no less than 80%.

As to `COCCNC(=O)C(=O)c1ccc(-c2noc(C(F)(F)F)n2)cc1` [Compound 1.40, N-(2-methoxy-ethyl)-2-oxo-2-[4-[5-(trifluoromethyl)-1,2,4-oxadiazol-3-yl]phenyl]acetamide], the pest or weed control at 200 ppm in series [1] and in series [2] was no less than 80% in each case. Further, the inhibition at 20 ppm in series [3] is no less than 80%.

The record behind these values is patent US10653146B2, “Microbiocidal oxadiazole derivatives” (SYNGENTA PARTICIPATIONS AG, priority 2016, dated 2020).
